{
  "source": "ChEMBL document CHEMBL5335772",
  "about": "“EGCG adjuvant chemotherapy: Current status and future perspectives” (Eur J Med Chem, 2023)",
  "key": {"[1]": {"tested_on": "BEL-7404 tumor cell line", "assay": "Antiproliferative activity against human BEL-7404 tumor cell line assessed as inhibition of cell proliferation incubated for 72 hrs by MTT assay", "type": "functional, cell-based", "conditions": "BEL-7404, 72 h"}, "[2]": {"tested_on": "ADR5000 cell line", "assay": "Antiproliferative activity against human CEM/ADR5000 cells assessed as reduction in cell viability incubated for 48 hrs by MTT assay", "type": "functional, cell-based", "conditions": "ADR5000, 48 h"}, "[3]": {"tested_on": "BEL-7404 tumor cell line", "assay": "Induction of apoptosis in human BEL-7404 tumor cell line in presence of EGCG at 30.5 uM", "type": "functional, cell-based"}, "[4]": {"tested_on": "ADR5000 cell line", "assay": "Induction of apoptosis in human CEM/ADR5000 cells in presence of EGCG at 20 uM", "type": "functional, cell-based"}, "[5]": {"tested_on": "DLD-1", "assay": "Antiproliferative activity against human DLD-1 cells assessed as reduction in cell growth incubated for 24 hrs by MTT assay", "type": "functional, cell-based", "conditions": "DLD-1, 24 h"}, "[6]": {"tested_on": "DLD-1", "assay": "Induction of apoptosis in human DLD-1 cells in presence of EGCG at 50 uM", "type": "functional, cell-based"}, "[7]": {"tested_on": "MCF7", "assay": "Induction of apoptosis in human MCF7 cells in presence of EGCG at 50 uM"}},
  "data": [
    {"smiles": "COc1cccc2c1C(=O)c1c(O)c3c(c(O)c1C2=O)C[C@@](O)(C(=O)CO)C[C@@H]3O[C@H]1C[C@H](N)[C@H](O)[C@H](C)O1", "note": "[DOXORUBICIN]", "values": [
      {"measurement": "IC50", "setting": "[1]", "value": 1.62, "unit": "µM"},
      {"measurement": "IC50", "setting": "[2]", "value": 88.9, "unit": "µM"},
      {"measurement": "IC50", "setting": "[3]", "value": 3.28, "unit": "µM"},
      {"measurement": "IC50", "setting": "[4]", "value": 29.9, "unit": "µM"}
    ]},
    {"smiles": "O=c1[nH]cc(F)c(=O)[nH]1", "note": "[FLUOROURACIL]", "values": [
      {"measurement": "IC50", "setting": "[5]", "value": 150, "unit": "µM"},
      {"measurement": "IC50", "setting": "[6]", "value": 11, "unit": "µM"}
    ]},
    {"smiles": "CC/C(=C(\\c1ccccc1)c1ccc(OCCN(C)C)cc1)c1ccccc1", "note": "[TAMOXIFEN]", "values": [
      {"measurement": "IC50", "setting": "[7]", "value": 5.8, "unit": "µM"}
    ]}
  ]
}
